Several values for one entry are separate records, joined by “and”; a condition that tells them apart may be missing. Identical values can stand only once. Toxic doses and inconclusive results are not listed. The calls were made as follows: active = survival T/C of 150% or more; inactive = T/C below 125% in these data.
System: P388 leukemia ip, CD2F1 mice, survival T/C
Test: NCI In Vivo Anticancer Drug Screen. Data for tumor model P388 Leukemia (intraperitoneal) in CD2F1 (CDF1) mice
Details: endpoint: median survival time, higher = longer survival
In short: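 Mice carrying the transplanted tumor received test compound or vehicle. Survival was recorded in each group, and the value is the treated-group measurement divided by that of the vehicle-treated control group.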

[1] = dose: 12.5 mg/kg/injection, schedule: Q01DX009 (ip), vehicle: saline with Tween-80
[2] = dose: 25.0 mg/kg/injection, schedule: Q01DX009 (ip), vehicle: saline with Tween-80
[3] = dose: 50.0 mg/kg/injection, schedule: Q01DX009 (ip), vehicle: saline with Tween-80
[4] = dose: 100.0 mg/kg/injection, schedule: Q01DX009 (ip), vehicle: saline with Tween-80
[5] = dose: 60.0 mg/kg/injection, schedule: Q01DX005 (ip), vehicle: Klucel (hydroxypropylcellulose) (HPC)
[6] = dose: 240.0 mg/kg/injection, schedule: Q01DX005 (ip), vehicle: Klucel (hydroxypropylcellulose) (HPC)
[7] = dose: 25.0 mg/kg/injection, schedule: Q01DX005 (ip), vehicle: Klucel (hydroxypropylcellulose) (HPC)
[8] = dose: 50.0 mg/kg/injection, schedule: Q01DX009 (ip), vehicle: saline
[9] = dose: 100.0 mg/kg/injection, schedule: Q01DX009 (ip), vehicle: saline
[10] = dose: 200.0 mg/kg/injection, schedule: Q01DX009 (ip), vehicle: saline
[11] = dose: 12.5 mg/kg/injection, schedule: Q01DX009 (ip), vehicle: Klucel (hydroxypropylcellulose) (HPC)
[12] = dose: 25.0 mg/kg/injection, schedule: Q01DX009 (ip), vehicle: Klucel (hydroxypropylcellulose) (HPC)
[13] = dose: 50.0 mg/kg/injection, schedule: Q01DX009 (ip), vehicle: Klucel (hydroxypropylcellulose) (HPC)
[14] = dose: 100.0 mg/kg/injection, schedule: Q01DX009 (ip), vehicle: Klucel (hydroxypropylcellulose) (HPC)
[15] = dose: 100.0 mg/kg/injection, schedule: Q01DX001 (ip), vehicle: saline with Tween-80
[16] = dose: 200.0 mg/kg/injection, schedule: Q01DX001 (ip), vehicle: saline with Tween-80
[17] = dose: 400.0 mg/kg/injection, schedule: Q01DX001 (ip), vehicle: saline with Tween-80

Measured: T/C

O=C(Nc1ccccc1)Nc1nncs1
inactive: dose: 1.56 mg/kg/injection, schedule: Q01DX009 (ip), vehicle: distilled water + Tween-80 104 % of control | dose: 3.13 mg/kg/injection, schedule: Q01DX009 (ip), vehicle: distilled water + Tween-80 109 % of control | dose: 6.25 mg/kg/injection, schedule: Q01DX009 (ip), vehicle: distilled water + Tween-80 103 % of control | dose: 12.5 mg/kg/injection, schedule: Q01DX009 (ip), vehicle: distilled water + Tween-80 104 % of control | dose: 25.0 mg/kg/injection, schedule: Q01DX009 (ip), vehicle: distilled water + Tween-80 104 % of control

CC(C)COC(=O)C1(N)CCCC1
inactive: dose: 100.0 mg/kg/injection, schedule: Q04DX003 (ip), vehicle: saline 95 % of control | dose: 200.0 mg/kg/injection, schedule: Q04DX003 (ip), vehicle: saline 104 % of control | dose: 400.0 mg/kg/injection, schedule: Q04DX003 (ip), vehicle: saline 100 % of control

Cc1cc(=O)[nH]c(N/N=C/c2c(O)ccc3ccccc23)n1
inactive: [1] 93 % of control | [2] 88 % of control | [3] 87 % of control | [4] 102 % of control

O=c1c2c([nH]c3ccccc13)CSC2
inactive: [3] 100 % of control | [4] 100 % of control | dose: 200.0 mg/kg/injection, schedule: Q01DX009 (ip), vehicle: saline with Tween-80 97 % of control | dose: 400.0 mg/kg/injection, schedule: Q01DX009 (ip), vehicle: saline with Tween-80 100 % of control

CC(=O)c1c(C)n(-c2ccccc2)c2c1[nH]c1ccccc12
inactive: dose: 3.75 mg/kg/injection, schedule: Q01DX005 (ip), vehicle: Klucel (hydroxypropylcellulose) (HPC) 94 % of control | dose: 7.5 mg/kg/injection, schedule: Q01DX005 (ip), vehicle: Klucel (hydroxypropylcellulose) (HPC) 92 % of control | dose: 15.0 mg/kg/injection, schedule: Q01DX005 (ip), vehicle: Klucel (hydroxypropylcellulose) (HPC) 86 % of control and 93 % of control | [5] 93 % of control | [6] 92 % of control

CN(C)CCO/N=C1/CC[C@H]2[C@@H]3CC[C@H]4C[C@H](O)CC[C@]4(C)[C@H]3CC[C@]12C
inactive: dose: 12.5 mg/kg/injection, schedule: Q01DX005 (ip), vehicle: Klucel (hydroxypropylcellulose) (HPC) 104 % of control | [7] 95 % of control | dose: 50.0 mg/kg/injection, schedule: Q01DX005 (ip), vehicle: Klucel (hydroxypropylcellulose) (HPC) 95 % of control

CN1CCCC1CCNc1nc(Nc2ccc(Cl)c(Cl)c2)nc2ccc(Cl)cc12 (stereo unspecified)
inactive: dose: 6.25 mg/kg/injection, schedule: Q01DX009 (ip), vehicle: saline with Tween-80 95 % of control | [1] 90 % of control | [2] 100 % of control

CN(C)CCC#N
inactive: [8] 117 % of control | [9] 105 % of control | [10] 100 % of control

C=C1C[C@@H](O)C[C@@]2(C)C[C@@H]3OC(=O)C(=C)[C@@H]3C[C@H]12
inactive: [11] 99 % of control | [12] 111 % of control | [13] 114 % of control | [14] 114 % of control

O=C(Nc1cc(Cl)ccc1Cl)/C(Cl)=C1/Sc2ccccc2NC1=O
inactive: [15] 108 % of control | [16] 90 % of control | [17] 90 % of control

Cc1cc(NCCCCCCNc2cc(C)[n+](C)c3ccccc23)c2ccccc2[n+]1C
inactive: dose: 3.12 mg/kg/injection, schedule: Q01DX005 (ip), vehicle: suspension in saline 101 % of control | dose: 6.25 mg/kg/injection, schedule: Q01DX005 (ip), vehicle: suspension in saline 106 % of control | dose: 12.5 mg/kg/injection, schedule: Q01DX005 (ip), vehicle: suspension in saline 115 % of control

CC1(C)CC(=O)C(C2=NCCCC2)=C(O)C1
inactive: dose: 100.0 mg/kg/injection, schedule: Q04DX002 (ip), vehicle: saline with Tween-80 102 % of control | dose: 200.0 mg/kg/injection, schedule: Q04DX002 (ip), vehicle: saline with Tween-80 100 % of control | dose: 400.0 mg/kg/injection, schedule: Q04DX002 (ip), vehicle: saline with Tween-80 100 % of control

CCCCCCN(CCCCCC)CC(O)c1ccc2c3c(cccc13)CC2 (stereo unspecified)
inactive: [13] 106 % of control | [14] 102 % of control | dose: 200.0 mg/kg/injection, schedule: Q01DX009 (ip), vehicle: Klucel (hydroxypropylcellulose) (HPC) 100 % of control

Cc1cc2nccc(/C=C/c3ccc(N(C)C)cc3)c2cc1C
inactive: [1] 102 % of control | [2] 110 % of control | [3] 92 % of control

NC1=NC(c2ccccc2)C=C(c2ccccc2)N1 (stereo unspecified)
inactive: dose: 12.5 mg/kg/injection, schedule: Q04DX002 (ip), vehicle: saline with Tween-80 104 % of control | dose: 25.0 mg/kg/injection, schedule: Q04DX002 (ip), vehicle: saline with Tween-80 103 % of control | dose: 50.0 mg/kg/injection, schedule: Q04DX002 (ip), vehicle: saline with Tween-80 103 % of control

c1ccc2c(c1)nnn1c3ncccc3nc21
inactive: [1] 108 % of control | [2] 105 % of control | [3] 105 % of control

CCCC(O)C(C(=O)OCC)C(=O)OCC (stereo unspecified)
inactive: [8] 95 % of control | [9] 95 % of control | [10] 94 % of control

C1CCN2CC3CC(CN4CCCC[C@@H]34)[C@@H]2C1
inactive: [7] 100 % of control

CC(=O)C(C)S(=O)(=O)O (stereo unspecified)
inactive: dose: 100.0 mg/kg/injection, schedule: Q01DX001 (ip), vehicle: saline 106 % of control | dose: 200.0 mg/kg/injection, schedule: Q01DX001 (ip), vehicle: saline 106 % of control | dose: 400.0 mg/kg/injection, schedule: Q01DX001 (ip), vehicle: saline 106 % of control

Cc1cccc(-c2cc3ccccc3c(Cl)n2)n1
inactive: [15] 104 % of control | [16] 100 % of control | [17] 91 % of control

Cc1ccc2c(c1Oc1ccc(S(N)(=O)=O)cc1)C(=O)c1ccccc1C2=O
inactive: dose: 100.0 mg/kg/injection, schedule: Q04DX003 (ip), vehicle: saline with Tween-80 100 % of control | dose: 200.0 mg/kg/injection, schedule: Q04DX003 (ip), vehicle: saline with Tween-80 100 % of control | dose: 400.0 mg/kg/injection, schedule: Q04DX003 (ip), vehicle: saline with Tween-80 95 % of control

N=C(N=C(C(Cl)(Cl)Cl)C(Cl)(Cl)Cl)N=C(C(Cl)(Cl)Cl)C(Cl)(Cl)Cl
inactive: dose: 60.0 mg/kg/injection, schedule: Q01DX005 (ip), vehicle: saline with Tween-80 100 % of control | dose: 120.0 mg/kg/injection, schedule: Q01DX005 (ip), vehicle: saline with Tween-80 99 % of control | dose: 240.0 mg/kg/injection, schedule: Q01DX005 (ip), vehicle: saline with Tween-80 104 % of control

O=C1/C(=C/c2ccccc2)CCCC12C(c1ccccc1)N2Cc1ccccc1 (stereo unspecified)
inactive: [5] 91 % of control | dose: 120.0 mg/kg/injection, schedule: Q01DX005 (ip), vehicle: Klucel (hydroxypropylcellulose) (HPC) 90 % of control | [6] 88 % of control

C=CCOc1c2c(cc3ccc(=O)oc13)CC=CO2
inactive: [11] 95 % of control | [12] 105 % of control | [13] 98 % of control and 100 % of control | [14] 112 % of control

CCC[CH2][Sn]([CH2]CCC)[CH2]CCC.CCC[CH2][Sn]([CH2]CCC)[CH2]CCC
inactive: dose: 1.56 mg/kg/injection, schedule: Q04DX002 (ip), vehicle: saline with Tween-80 103 % of control | dose: 3.12 mg/kg/injection, schedule: Q04DX002 (ip), vehicle: saline with Tween-80 117 % of control | dose: 6.25 mg/kg/injection, schedule: Q04DX002 (ip), vehicle: saline with Tween-80 103 % of control and 109 % of control | dose: 100.0 mg/kg/injection, schedule: Q04DX003 (ip), vehicle: Klucel (hydroxypropylcellulose) (HPC) 118 % of control

Cc1ccc(N2C(=O)C(C)SC2=S)cc1Cl (stereo unspecified)
inactive: dose: 12.5 mg/kg/injection, schedule: Q01DX009 (ip), vehicle: saline 100 % of control | dose: 25.0 mg/kg/injection, schedule: Q01DX009 (ip), vehicle: saline 100 % of control | [8] 101 % of control and 103 % of control | [10] 91 % of control
